Like-named read-outs stand apart in the source and are kept apart here.
What was measured:
134 cancer cell lines = experiment: Cell viability assay (ATPlite, 72 hours), IC50 on cancer cell line panel
AP-1060 (ETV6-NTRK3) = experiment: Cell viability assay; conditions: read-out: IC50 in cell proliferation assay
[1] = molecular target: T1, panel of 255 wild-type kinases (Homo sapiens, UniProt Q9BZL6); experiment: Kinase panel profiling at 1 µmol/L (MSA or IMAP), percentage inhibition; format: biochemical; conditions: kinase PKD2; 1 µmol/L single concentration; read-out: %-inhibition at 1 µmol/L, PKD2
T1 sequence (Q9BZL6 1-878): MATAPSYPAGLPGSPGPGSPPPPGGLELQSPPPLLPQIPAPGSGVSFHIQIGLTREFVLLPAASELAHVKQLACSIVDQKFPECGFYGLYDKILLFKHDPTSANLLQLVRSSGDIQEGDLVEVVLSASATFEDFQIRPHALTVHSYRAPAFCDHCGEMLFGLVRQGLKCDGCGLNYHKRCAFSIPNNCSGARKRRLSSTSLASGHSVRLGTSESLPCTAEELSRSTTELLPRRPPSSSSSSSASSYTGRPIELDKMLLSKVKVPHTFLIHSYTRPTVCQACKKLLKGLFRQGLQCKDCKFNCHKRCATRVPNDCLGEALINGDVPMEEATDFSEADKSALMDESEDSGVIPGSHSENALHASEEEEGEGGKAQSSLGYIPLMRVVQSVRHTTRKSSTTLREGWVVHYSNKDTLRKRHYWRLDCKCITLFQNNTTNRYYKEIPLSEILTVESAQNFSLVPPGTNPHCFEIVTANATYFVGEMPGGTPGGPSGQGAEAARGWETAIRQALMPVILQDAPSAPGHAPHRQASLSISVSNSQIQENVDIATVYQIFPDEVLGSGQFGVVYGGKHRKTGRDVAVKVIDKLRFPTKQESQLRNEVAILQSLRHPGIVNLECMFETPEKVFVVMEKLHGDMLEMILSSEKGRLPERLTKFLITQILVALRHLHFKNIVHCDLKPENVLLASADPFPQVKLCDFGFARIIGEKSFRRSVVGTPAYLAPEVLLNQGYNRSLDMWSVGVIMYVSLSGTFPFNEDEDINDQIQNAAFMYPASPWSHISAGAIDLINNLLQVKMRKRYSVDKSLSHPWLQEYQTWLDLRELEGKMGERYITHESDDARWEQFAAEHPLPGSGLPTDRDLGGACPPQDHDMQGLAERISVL

## CCN1C(=O)N(c2c(F)c(OC)cc(OC)c2F)Cc2cnc3[nH]c(CN4CCOCC4)cc3c21 [pemigatinib]
134 cancer cell lines; Homo sapiens, MCF7, read-out: IC50 in cell proliferation assay
  IC50: > 31600 nM
134 cancer cell lines; Homo sapiens, MDA-MB-231, read-out: IC50 in cell proliferation assay
  IC50: 4510 nM
134 cancer cell lines; Homo sapiens, MDA-MB-453, read-out: IC50 in cell proliferation assay
  IC50: > 31600 nM
134 cancer cell lines; Homo sapiens, MDA-MB-468, read-out: IC50 in cell proliferation assay
  IC50: 729 nM
134 cancer cell lines; Homo sapiens, MG-63, read-out: IC50 in cell proliferation assay
  IC50: 11 nM
134 cancer cell lines; Homo sapiens, MIA PaCa-2, read-out: IC50 in cell proliferation assay
  IC50: 5730 nM
134 cancer cell lines; Homo sapiens, MKN-45, read-out: IC50 in cell proliferation assay
  IC50: 2320 nM
134 cancer cell lines; Homo sapiens, MOLM-13, read-out: IC50 in cell proliferation assay
  IC50: 3540 nM
134 cancer cell lines; Homo sapiens, MOLT-4, read-out: IC50 in cell proliferation assay
  IC50: 3590 nM
134 cancer cell lines; Homo sapiens, MV4-11, read-out: IC50 in cell proliferation assay
  IC50: 2490 nM
134 cancer cell lines; Homo sapiens, MeWo, read-out: IC50 in cell proliferation assay
  IC50: 2810 nM
134 cancer cell lines; Homo sapiens, NCCIT, read-out: IC50 in cell proliferation assay
  IC50: 22 nM
134 cancer cell lines; Homo sapiens, NCI-H82, read-out: IC50 in cell proliferation assay
  IC50: 1400 nM
134 cancer cell lines; Homo sapiens, NCI-H460, read-out: IC50 in cell proliferation assay
  IC50: 2750 nM
134 cancer cell lines; Homo sapiens, NCI-H661, read-out: IC50 in cell proliferation assay
  IC50: 2440 nM
134 cancer cell lines; Homo sapiens, NCI-H716, read-out: IC50 in cell proliferation assay
  IC50: 2.34 nM
134 cancer cell lines; Homo sapiens, NCI-H1650, read-out: IC50 in cell proliferation assay
  IC50: 3300 nM
134 cancer cell lines; Homo sapiens, NCI-H1975, read-out: IC50 in cell proliferation assay
  IC50: 2970 nM
134 cancer cell lines; Homo sapiens, NCI-H2228, read-out: IC50 in cell proliferation assay
  IC50: 2770 nM
134 cancer cell lines; Homo sapiens, OVCAR-3, read-out: IC50 in cell proliferation assay
  IC50: 3130 nM
134 cancer cell lines; Homo sapiens, PFSK-1, read-out: IC50 in cell proliferation assay
  IC50: 3860 nM
134 cancer cell lines; Homo sapiens, RL95-2, read-out: IC50 in cell proliferation assay
  IC50: 2380 nM
134 cancer cell lines; Homo sapiens, RPMI-7951, read-out: IC50 in cell proliferation assay
  IC50: 2980 nM
134 cancer cell lines; Homo sapiens, RS4-11, read-out: IC50 in cell proliferation assay
  IC50: 1330 nM
134 cancer cell lines; Homo sapiens, Rec1, read-out: IC50 in cell proliferation assay
  IC50: 3530 nM
134 cancer cell lines; Homo sapiens, SHP77, read-out: IC50 in cell proliferation assay
  IC50: > 31600 nM
134 cancer cell lines; Homo sapiens, SK-BR-3, read-out: IC50 in cell proliferation assay
  IC50: 835 nM
134 cancer cell lines; Homo sapiens, SK-N-AS, read-out: IC50 in cell proliferation assay
  IC50: 2830 nM
134 cancer cell lines; Homo sapiens, SK-N-FI, read-out: IC50 in cell proliferation assay
  IC50: 3040 nM
134 cancer cell lines; Homo sapiens, SK-N-MC, read-out: IC50 in cell proliferation assay
  IC50: 2600 nM
134 cancer cell lines; Homo sapiens, SK-N-SH, read-out: IC50 in cell proliferation assay
  IC50: 2230 nM
134 cancer cell lines; Homo sapiens, SNU-5, read-out: IC50 in cell proliferation assay
  IC50: 5260 nM
134 cancer cell lines; Homo sapiens, SNU-16, read-out: IC50 in cell proliferation assay
  IC50: 2 nM
134 cancer cell lines; Homo sapiens, SNU-C2B, read-out: IC50 in cell proliferation assay
  IC50: > 31600 nM
134 cancer cell lines; Homo sapiens, SU-DHL-1, read-out: IC50 in cell proliferation assay
  IC50: 2800 nM
134 cancer cell lines; Homo sapiens, SU-DHL-6, read-out: IC50 in cell proliferation assay
  IC50: 5120 nM
134 cancer cell lines; Homo sapiens, SUP-T1, read-out: IC50 in cell proliferation assay
  IC50: 4280 nM
134 cancer cell lines; Homo sapiens, SW48, read-out: IC50 in cell proliferation assay
  IC50: 8070 nM
134 cancer cell lines; Homo sapiens, SW480, read-out: IC50 in cell proliferation assay
  IC50: 2960 nM
134 cancer cell lines; Homo sapiens, SW626, read-out: IC50 in cell proliferation assay
  IC50: 3560 nM
134 cancer cell lines; Homo sapiens, SW780, read-out: IC50 in cell proliferation assay
  IC50: 8 nM
134 cancer cell lines; Homo sapiens, SW837, read-out: IC50 in cell proliferation assay
  IC50: 6230 nM
134 cancer cell lines; Homo sapiens, SW872, read-out: IC50 in cell proliferation assay
  IC50: 2500 nM
134 cancer cell lines; Homo sapiens, SW900, read-out: IC50 in cell proliferation assay
  IC50: 1920 nM
134 cancer cell lines; Homo sapiens, SW948, read-out: IC50 in cell proliferation assay
  IC50: 1930 nM
134 cancer cell lines; Homo sapiens, SW982, read-out: IC50 in cell proliferation assay
  IC50: 1280 nM
134 cancer cell lines; Homo sapiens, SW-620, read-out: IC50 in cell proliferation assay
  IC50: 3490 nM
134 cancer cell lines; Homo sapiens, T98G, read-out: IC50 in cell proliferation assay
  IC50: 3540 nM
134 cancer cell lines; Homo sapiens, TCC-SUP, read-out: IC50 in cell proliferation assay
  IC50: 606 nM
134 cancer cell lines; Homo sapiens, THP-1, read-out: IC50 in cell proliferation assay
  IC50: 4230 nM
134 cancer cell lines; Homo sapiens, U2OS, read-out: IC50 in cell proliferation assay
  IC50: 2950 nM
134 cancer cell lines; Homo sapiens, U-87 MG, read-out: IC50 in cell proliferation assay
  IC50: 3120 nM
134 cancer cell lines; Homo sapiens, U-118-MG, read-out: IC50 in cell proliferation assay
  IC50: 4090 nM
134 cancer cell lines; Homo sapiens, UMUC3, read-out: IC50 in cell proliferation assay
  IC50: 1600 nM
134 cancer cell lines; Hs766T, read-out: IC50 in cell proliferation assay
  IC50: 5660 nM
134 cancer cell lines; L-82, read-out: IC50 in cell proliferation assay
  IC50: 4100 nM
134 cancer cell lines; Rh30, read-out: IC50 in cell proliferation assay
  IC50: 137 nM
AP-1060 (ETV6-NTRK3)
  IC50: 3420 nM
[1]
  inhibition at 1 µM: 4.44%

Source: publication PMC9516332 (Frontiers in Oncology, 2022)
